Results from US20250236619A1, “FUSED BICYCLIC COMPOUND CONTAINING PYRROLINONE” (CHIA TAI TIANQING PHARMACEUTICAL GROUP CO., LTD., priority 2022, published 2025).

Key:
[1] = target: HPK1 kinase (Homo sapiens (Human), UniProt Q92918); test: Assay for in vitro inhibitory activity against HPK1 kinase; format: biochemical; settings: HPK1 1 ng/μL, ATP 1 mM, STK Substrate 1-biotin 500 nM
Description: Experimental Example 1: Assay for In Vitro Inhibitory Activity Against HPK1 Kinase A kinase buffer (Enzymatic buffer 5×) was diluted to 1×, and 10 mM MgCl2, 1 mM DTT, and 0.005% Tween 20 were added. A 100 ng/μL HPK1 (Life technology) stock solution was diluted with the kinase buffer to obtain a 1.67×, 1.67 ng/μL working solution (final concentration: 1 ng/μL), and the working solution was seeded in a 384-well plate at 6 μL/well. Different compounds dissolved in DMSO were added to the wells using a nanoliter pipettor to obtain final concentrations of the compounds of 1000 nM to 0.244 nM (4-fold serial dilution, 7 concentrations in total), and blank control wells (without enzyme) and negative control wells (with enzyme, plus vehicle DMSO) were set; the wells were set in duplicate. After the enzyme and the compounds were incubated at room temperature for 1 h, a 5×, 5 mM ATP dilution (final concentration: 1 mM) in the kinase buffer was mixed with a 5×, […] substrate (Cisbio, STK Substrate 1-biotin; final concentration: 500 nM) in equal volume, and the mixture was added to the plate at 4 µL/well. The plate was sealed with a film and then incubated at room temperature for 2 h. An assay antibody solution was prepared by mixing the antibody STK Antibody-cryptate (Cisbio, 5 μL/test) and a 4×, 500 nM Streptavidin-XL665 (Cisbio; final concentration: 125 nM) in equal volume and added to the plate at 10 μL/well. The plate was incubated at room temperature for 1 h. The signal values (excitation: […]) were measured using a PE Envision multimode microplate reader, and IC50 was calculated by four-parameter fitting.

[2] = tested on: p-SLP76 phosphorylation of Jurkat cells; test: Assay for inhibitory activity against p-SLP76 phosphorylation of Jurkat cells; format: cell-based; settings: stimulator CD3CD28, 30 min, read-out: IC50 (nM) for inhibition of p-SLP76 phosphorylation of Jurkat cells
Description: 2.1 Assay for Inhibitory Activity Against p-SLP76 Phosphorylation of Jurkat Cells
Jurkat cells in a good growth state were added to a centrifuge tube, centrifuged, and resuspended. The cell density was adjusted to 6.25×10^6 cells/mL, and the cells were seeded in a 384-well small-volume white plate at […]. Different compounds dissolved in DMSO were added to the wells using a nanoliter pipettor to obtain final concentrations of the compounds of 2500 nM to 10.29 nM, and a control was set; the wells were set in duplicate. After 1 h of cell culture, the stimulator CD3CD28 (manufacturer: stemcell, 4 μL) was added and the cells were incubated at 37° C. for 30 min. 3 μL of lysis buffer (manufacturer: BioAuxilium) was added to each well, and the plate was shaken at room temperature for 30 min. After the lysate was well mixed, 5 μL of pre-mixed antibody (manufacturer: BioAuxilium) in assay buffer was added and the plate was incubated overnight at room temperature. The signal values were measured on a PerkinElmer Envision multimode microplate reader (excitation: 320 nm, emission: 615 nm/665 nm), and IC50 was calculated by four-parameter filling.

Sequence of HPK1 kinase (Q92918 whole entry): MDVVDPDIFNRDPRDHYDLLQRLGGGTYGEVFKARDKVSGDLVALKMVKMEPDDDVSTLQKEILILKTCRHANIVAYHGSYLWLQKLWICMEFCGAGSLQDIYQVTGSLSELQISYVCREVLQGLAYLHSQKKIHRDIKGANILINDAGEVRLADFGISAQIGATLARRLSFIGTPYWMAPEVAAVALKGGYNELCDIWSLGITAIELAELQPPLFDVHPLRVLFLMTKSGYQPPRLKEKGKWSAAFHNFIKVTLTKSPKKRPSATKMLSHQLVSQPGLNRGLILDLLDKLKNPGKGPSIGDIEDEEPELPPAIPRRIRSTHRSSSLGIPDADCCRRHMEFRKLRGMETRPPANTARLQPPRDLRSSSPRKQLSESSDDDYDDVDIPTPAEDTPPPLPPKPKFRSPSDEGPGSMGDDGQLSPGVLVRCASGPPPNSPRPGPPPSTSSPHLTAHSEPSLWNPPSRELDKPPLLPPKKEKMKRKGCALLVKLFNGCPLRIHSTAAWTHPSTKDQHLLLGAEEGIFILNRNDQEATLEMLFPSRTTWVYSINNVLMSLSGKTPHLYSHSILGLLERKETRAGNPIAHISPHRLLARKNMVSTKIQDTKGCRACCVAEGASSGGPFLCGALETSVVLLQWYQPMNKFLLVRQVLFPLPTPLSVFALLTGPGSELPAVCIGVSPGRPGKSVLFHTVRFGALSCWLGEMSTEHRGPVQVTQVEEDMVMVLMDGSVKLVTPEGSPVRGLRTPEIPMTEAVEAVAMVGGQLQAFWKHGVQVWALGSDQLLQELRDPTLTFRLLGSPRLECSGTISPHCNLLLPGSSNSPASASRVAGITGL

| Compound | IC50 [1] [nM] | IC50 [2] [nM] |
| --- | --- | --- |
| CN(C)Cc1nc(Nc2ccc(-c3cnc4ccc5occc5n34)c3c2C(=O)NC3)ccc1-c1ccn(C)c(=O)c1 [Compound I-77] | 2.9 | < 50 |
| CN(C)Cc1nc(Nc2ccc(-c3cnn4c3CC3(CC3)C4)c3c2C(=O)NC3)ccc1C1CCN(C)CC1 [Compound I-78] | 2.3 | 50 to 100 |
| CN(C)Cc1nc(Nc2ccc(-c3cnn4c3CC3(CC4)CC3)c3c2C(=O)NC3)ccc1[C@@H]1CCN(C)C(=O)C1 [I-71] | 3.6 | < 50 |
